The values that follow come from patent US10022374B2, “Certain protein kinase inhibitors” (Shanghai Fochon Pharmaceutical Co., Ltd., priority 2013, dated 2018).

One test relates to A-375 cells. The experiment in a line: Inhibition of cell proliferation (MTS), A-375 cells. The test is classed as cell-based. The note with it: A-375 cells, 3000 cells/well, 72 h, MTS, absorbance 490 nm, read-out: A375 IC50. The procedure:
(§1) MTS testing kit was purchased from Promega. The DMEM, RPMI-1640 and Fetal bovine serum were purchased from Gibco. Dimethyl sulfoxide (DMSO) was purchased from Sigma.
(§2) To investigate whether a compound is able to inhibit the activity of MEK in cells, a mechanism-based assay using A-375 and HT-29 cell was developed. In this assay, inhibition of MEK was detected by the inhibition of A-375 and HT-29 cells proliferation. A-375 and HT-29 cells were cultured in culture flasks to 40-80% confluence respectively in DMEM and RPMI-1640 plus 10% fetal bovine serum. Cells were collected and plated onto 96-well plates at desired cell density (A-375: 3000 cells/well; HT-29: 5000 cells/well). Plates were incubated overnight at 37° C., with 5% CO2 to adhere. Compounds were added to the plates. The final compound concentrations were […], 12.35, 4.12, 1.37, 0.46 and 0.15 nM, respectively. Place plates at 37° C., with 5% CO2 for 72 h. 10 μl MTS were added to each well and incubate the plates for exactly 2 hours. Absorbance was measured at 490 nm. […] was calculated using GraphPad Prism 5.0.

The next test has as its system HT-29 cells. In words: Inhibition of cell proliferation (MTS), HT-29 cells. The test is classed as cell-based. The note with it: HT-29 cells, 5000 cells/well, 72 h, MTS, absorbance 490 nm, read-out: HT29 IC50. The procedure: as §1, §2

Where two headings read alike, the source gives them in different places.

As a reminder, the IC50 is the concentration that inhibits the measured activity by half. On to `Cn1c(=O)c(F)c(Nc2ccc(I)cc2F)c2c(=O)n(CC(F)F)nc(-c3cccc(NS(=O)(=O)C4CC4)c3)c21` [Example 20, N-(3-(6-(2,2-difluoroethyl)-3-fluoro-4-(2-fluoro-4-iodophenylamino)-1-methyl-2,5-dioxo-1,2,5,6-tetrahydropyrido[2,3-d]pyridazin-8-yl)phenyl)cyclopropanesulfonamide], for which the IC50 in the test with A-375 cells (Homo sapiens, A-375, 72 h) is 6.4 nM; with HT-29 cells (Homo sapiens, HT-29, 72 h), 7.7 nM.
`CC(=O)Nc1cccc(-c2nn(C)c(=O)c3c(Nc4ccc(I)cc4F)c(F)c(=O)n(C)c23)c1` [Example 21, N-(3-(3-fluoro-4-(2-fluoro-4-iodophenylamino)-1,6-dimethyl-2,5-dioxo-1,2,5,6-tetrahydropyrido[2,3-d]pyridazin-8-yl)phenyl)acetamide]: the IC50 in the test on A-375 cells (Homo sapiens, A-375, 72 h) was 3.9 nM; in the test on HT-29 cells (Homo sapiens, HT-29, 72 h), under 1 nM.
Consider `Cn1nc(-c2cccc(NS(C)(=O)=O)c2)c2c(c(Nc3ccc(I)cc3F)c(F)c(=O)n2C)c1=O` [Example 22, N-(3-(3-fluoro-4-(2-fluoro-4-iodophenylamino)-1,6-dimethyl-2,5-dioxo-1,2,5,6-tetrahydropyrido[2,3-d]pyridazin-8-yl)phenyl)methanesulfonamide], for which the IC50 with A-375 cells (Homo sapiens, A-375, 72 h) is under 1 nM; in the test with HT-29 cells (Homo sapiens, HT-29, 72 h) it was under 1 nM.
Turning to `Cn1nc(-c2cccc(NS(=O)(=O)C3CC3)c2)c2c(c(Nc3ccc(I)cc3F)c(F)c(=O)n2C)c1=O` [Example 23, N-(3-(3-fluoro-4-(2-fluoro-4-iodophenylamino)-1,6-dimethyl-2,5-dioxo-1,2,5,6-tetrahydropyrido[2,3-d]pyridazin-8-yl)phenyl)cyclopropanesulfonamide], the 50% inhibitory concentration (IC50) was under 1 nM with A-375 cells (Homo sapiens, A-375, 72 h) and under 1 nM in the test on HT-29 cells (Homo sapiens, HT-29, 72 h).
Regarding `CCn1nc(-c2cccc(NC(C)=O)c2)c2c(c(Nc3ccc(I)cc3F)c(F)c(=O)n2C)c1=O` [Example 24, N-(3-(6-ethyl-3-fluoro-4-(2-fluoro-4-iodophenylamino)-1-methyl-2,5-dioxo-1,2,5,6-tetrahydropyrido[2,3-d]pyridazin-8-yl)phenyl)acetamide], the concentration for half-maximal inhibition (IC50) was found to be 13.7 nM in the test with A-375 cells (Homo sapiens, A-375, 72 h) and 6.1 nM in the test on HT-29 cells (Homo sapiens, HT-29, 72 h).
The matching figures for `CCn1nc(-c2cccc(NS(C)(=O)=O)c2)c2c(c(Nc3ccc(I)cc3F)c(F)c(=O)n2C)c1=O` [Example 25, N-(3-(6-ethyl-3-fluoro-4-(2-fluoro-4-iodophenylamino)-1-methyl-2,5-dioxo-1,2,5,6-tetrahydropyrido[2,3-d]pyridazin-8-yl)phenyl)methanesulfonamide]: under 1 nM and under 1 nM.
The matching figures for `CCn1nc(-c2cccc(NS(=O)(=O)C(C)C)c2)c2c(c(Nc3ccc(I)cc3F)c(F)c(=O)n2C)c1=O` [Example 26, N-(3-(6-ethyl-3-fluoro-4-(2-fluoro-4-iodophenylamino)-1-methyl-2,5-dioxo-1,2,5,6-tetrahydropyrido[2,3-d]pyridazin-8-yl)phenyl)propane-2-sulfonamide]: 11.9 nM and under 1 nM.
On the same counts, the results for `CCn1nc(-c2cccc(NS(=O)(=O)C3CC3)c2)c2c(c(Nc3ccc(I)cc3F)c(F)c(=O)n2C)c1=O` [Example 27, N-(3-(6-ethyl-3-fluoro-4-(2-fluoro-4-iodophenylamino)-1-methyl-2,5-dioxo-1,2,5,6-tetrahydropyrido[2,3-d]pyridazin-8-yl)phenyl)cyclopropanesulfonamide] are under 1 nM and under 1 nM.
Consider `C=CCn1nc(-c2cccc(NC(C)=O)c2)c2c(c(Nc3ccc(I)cc3F)c(F)c(=O)n2C)c1=O` [Example 28, N-(3-(6-allyl-3-fluoro-4-(2-fluoro-4-iodophenylamino)-1-methyl-2,5-dioxo-1,2,5,6-tetrahydropyrido[2,3-d]pyridazin-8-yl)phenyl)acetamide], for which the IC50 came out at 1.6 nM with A-375 cells (Homo sapiens, A-375, 72 h) and 6.4 nM in the test on HT-29 cells (Homo sapiens, HT-29, 72 h).
On the same counts, the results for `C=CCn1nc(-c2cccc(NC(=O)CC)c2)c2c(c(Nc3ccc(I)cc3F)c(F)c(=O)n2C)c1=O` [Example 29, N-(3-(6-allyl-3-fluoro-4-(2-fluoro-4-iodophenylamino)-1-methyl-2,5-dioxo-1,2,5,6-tetrahydropyrido[2,3-d]pyridazin-8-yl)phenyl)propionamide] are 51.2 nM and 106 nM.
The matching figures for `C=CCn1nc(-c2cccc(NC(=O)C3CC3)c2)c2c(c(Nc3ccc(I)cc3F)c(F)c(=O)n2C)c1=O` [Example 30, N-(3-(6-allyl-3-fluoro-4-(2-fluoro-4-iodophenylamino)-1-methyl-2,5-dioxo-1,2,5,6-tetrahydropyrido[2,3-d]pyridazin-8-yl)phenyl)cyclopropanecarboxamide]: 80.7 nM and 76.7 nM.
Consider `C=CCn1nc(-c2cccc(NS(C)(=O)=O)c2)c2c(c(Nc3ccc(I)cc3F)c(F)c(=O)n2C)c1=O` [Example 31, N-(3-(6-allyl-3-fluoro-4-(2-fluoro-4-iodophenylamino)-1-methyl-2,5-dioxo-1,2,5,6-tetrahydropyrido[2,3-d]pyridazin-8-yl)phenyl)methanesulfonamide], for which the 50% inhibitory concentration (IC50) was found to be 1.1 nM with A-375 cells (Homo sapiens, A-375, 72 h) and 7.4 nM in the test with HT-29 cells (Homo sapiens, HT-29, 72 h).
In the case of `C=CCn1nc(-c2cccc(NS(=O)(=O)CC)c2)c2c(c(Nc3ccc(I)cc3F)c(F)c(=O)n2C)c1=O` [Example 32, N-(3-(6-allyl-3-fluoro-4-(2-fluoro-4-iodophenylamino)-1-methyl-2,5-dioxo-1,2,5,6-tetrahydropyrido[2,3-d]pyridazin-8-yl)phenyl)ethanesulfonamide], the 50% inhibitory concentration (IC50) with A-375 cells (Homo sapiens, A-375, 72 h) was 36.2 nM; with HT-29 cells (Homo sapiens, HT-29, 72 h), 12.7 nM.
The matching figures for `C=CCn1nc(-c2cccc(NS(=O)(=O)C(C)C)c2)c2c(c(Nc3ccc(I)cc3F)c(F)c(=O)n2C)c1=O` [Example 33, N-(3-(6-allyl-3-fluoro-4-(2-fluoro-4-iodophenylamino)-1-methyl-2,5-dioxo-1,2,5,6-tetrahydropyrido[2,3-d]pyridazin-8-yl)phenyl)propane-2-sulfonamide]: 12.6 nM and 7.2 nM.
On to `C=CCn1nc(-c2cccc(NS(=O)(=O)C3CC3)c2)c2c(c(Nc3ccc(I)cc3F)c(F)c(=O)n2C)c1=O` [Example 34, N-(3-(6-allyl-3-fluoro-4-(2-fluoro-4-iodophenylamino)-1-methyl-2,5-dioxo-1,2,5,6-tetrahydropyrido[2,3-d]pyridazin-8-yl)phenyl)cyclopropanesulfonamide], for which the IC50 was determined as 4.2 nM in the test on A-375 cells and 4.6 nM in the test on HT-29 cells.
Consider `C=CCn1nc(-c2cccc(NC(=O)C(C)C)c2)c2c(c(Nc3ccc(I)cc3F)c(F)c(=O)n2C)c1=O` [Example 35, N-(3-(6-allyl-3-fluoro-4-(2-fluoro-4-iodophenylamino)-1-methyl-2,5-dioxo-1,2,5,6-tetrahydropyrido[2,3-d]pyridazin-8-yl)phenyl)isobutyramide], for which the 50% inhibitory concentration (IC50) in the test on A-375 cells (Homo sapiens, A-375, 72 h) stood at 26.3 nM; in the test with HT-29 cells (Homo sapiens, HT-29, 72 h) it was 22.6 nM.
On the same counts, the results for `C=CCn1nc(-c2cccc(NC(C)=O)c2)c2c(c(Nc3ccc(Br)cc3F)c(F)c(=O)n2C)c1=O` [Example 36, N-(3-(6-allyl-4-(4-bromo-2-fluorophenylamino)-3-fluoro-1-methyl-2,5-dioxo-1,2,5,6-tetrahydropyrido[2,3-d]pyridazin-8-yl)phenyl)acetamide] are 341 nM and 427 nM.
The matching figures for `C=CCn1nc(-c2cccc(NS(C)(=O)=O)c2)c2c(c(Nc3ccc(Br)cc3F)c(F)c(=O)n2C)c1=O` [Example 37, N-(3-(6-allyl-4-(4-bromo-2-fluorophenylamino)-3-fluoro-1-methyl-2,5-dioxo-1,2,5,6-tetrahydropyrido[2,3-d]pyridazin-8-yl)phenyl)methanesulfonamide]: 32.4 nM and 42.7 nM.
On the same counts, the results for `CC(=O)Nc1cccc(-c2nn(CC(O)CO)c(=O)c3c(Nc4ccc(I)cc4F)c(F)c(=O)n(C)c23)c1` (stereo not drawn) [Example 40, N-(3-(6-(2,3-dihydroxypropyl)-3-fluoro-4-(2-fluoro-4-iodophenylamino)-1-methyl-2,5-dioxo-1,2,5,6-tetrahydropyrido[2,3-d]pyridazin-8-yl)phenyl)acetamide] are 2.5 nM and 1.9 nM.
Take `CCC(=O)Nc1cccc(-c2nn(CC(O)CO)c(=O)c3c(Nc4ccc(I)cc4F)c(F)c(=O)n(C)c23)c1` (stereo not drawn) [Example 41, N-(3-(6-(2,3-dihydroxypropyl)-3-fluoro-4-(2-fluoro-4-iodophenylamino)-1-methyl-2,5-dioxo-1,2,5,6-tetrahydropyrido[2,3-d]pyridazin-8-yl)phenyl)propionamide]: the IC50 was found to be 399 nM in the test with A-375 cells (Homo sapiens, A-375, 72 h) and 315 nM in the test with HT-29 cells (Homo sapiens, HT-29, 72 h).
The matching figures for `Cn1c(=O)c(F)c(Nc2ccc(I)cc2F)c2c(=O)n(CC(O)CO)nc(-c3cccc(NC(=O)C4CC4)c3)c21` (stereo not drawn) [Example 42, N-(3-(6-(2,3-dihydroxypropyl)-3-fluoro-4-(2-fluoro-4-iodophenylamino)-1-methyl-2,5-dioxo-1,2,5,6-tetrahydropyrido[2,3-d]pyridazin-8-yl)phenyl)cyclopropanecarboxamide]: 180 nM and 112 nM.
